“And” between values parts separate entries of the source, which are not always exact repeats. Equal values may be shown once. “Also recorded” adds a separate entry of the source.
What was measured:
[1] = in vivo; cited from earlier work
[2] = system: rat brain motor cortex; assay: Transcranial PA imaging of chemoconvulsant (PTZ) seizure neural activity; format: in vivo, Sprague Dawley rats; settings: for neural activity index (fractional change vs baseline): baseline 1.00±0.20
Excerpt: (§1) 2.5.1 Photoacoustic imaging setup. For the recording of electrophysiological brain activities in vivo, an ultrasound research system was utilized that consisted of ultrasound array transducer (L 14-5/38) connected to a real-time data acquisition system (SonixDAQ, Ultrasonix Medical Corp., Canada). To induce the PA signals, pulsed laser light was generated by a second-harmonic (532 nm) Nd:YAG laser pumping an optical parametric oscillator (OPO) system (Phocus Inline, Opotek Inc., USA). The tunable range of the laser system was 690-900 nm and the maximum pulse repetition frequency was 20 Hz. The laser pulse was delivered into the probe through bifurcated fiber optic bundles, each 40 mm long and 0.88 mm wide. The PA probe was located at around the Interaural 11.2 mm and Bregma 2.2 mm to obtain the cross-section of motor cortexes (FIG. 15). The energy density at skin surface was only 3.5 mJ/cm^2, which is far below the ANSI safety limit restricting the 5-ns pulsed laser exposure at 700-1400 nm of wavelength range to be lower than 20 mJ/cm^2. 2.5.2 Lipid vesicle phantom preparation for VSD validation. The lipid vesicle model was prepared using the same procedure as in Zhang et al (Zhang, et al., 2017); 25-mg soybean phosphatidyl-choline (type II) suspended in 1 mL of K^+ buffer was used as the lipid vesicles. This vesicle contains 100 mM K2SO4 and 20 mM HEPES. The suspension was vortexed for 10 min, and followed by 60 min of sonication within bath-type sonicator to yield a translucent vesicle suspension. A Na^+ buffer was also prepared, which contains 100 mM Na2SO4 and 20 mM HEPES. Afterwards, approximately a 100:1 K^+ gradient across vesicle membrane was established with 10 μL of lipid vesicle suspension added to 1 mL of Na^+ buffer. In the vesicle phantom prepared, negative membrane potential (polarized state) was mimicked by adding 2.5 μL of 10 μM valinomycin—a K^+ specific ionophore, thereby K^+ ions were transported from inside to outside of vesicle membranes.
2.5.4 Animal preparation. For the proposed in vivo experiments. […]

[3] = Photoacoustic measurement and quantum yield estimation of near-infrared VSD in lipid vesicle phantom; format: physicochemical; settings: for PA intensity decrease in depolarization state compared to polarized state (pure VSD contrast): 790 nm
Excerpt: as §1
Otherwise, 2.5 μL of 1 mM gramicidin, a nonspecific monovalent cation ionophore, enables Na+ cations to move from outside to inside of vesicle membranes to short circuit the membrane potential (depolarized state).
2.5.3 Estimation of quantum yield change of VSD. The quantum yields of the near-infrared VSD in depolarized states […] were estimated based on the Eq. 8 and 9 disclosed previously. […] The quantum yield in the polarized state (ΦF) were also estimated by compensating for the absorbance and fluorescence emission changes when depolarized: ΦF=(CF/Cabs)Φ′F.

[4] = system: rat motor cortex; assay: VSD toxicity study, EEG during direct cortical application via cranial window; format: in vivo
Description: 2.5.10 Validation of protocol for using sub-dermal EEG electrodes to determine toxic CNS effects of VSDs. VSDs effect on EEG signal from sub-dermal scalp electrodes was investigated in a pilot by direct cortical applications of increasing concentrations of VSDs in anesthetized rat with limited craniotomies while recording synchronous vEEGs (FIG. 21).
Increasing concentrations of VSD were tested in the same rat at temporally spaced time-points. Rats were anesthetized with IP injection to ketamine/xylazine and a cranial window made over the right motor cortex. After recording a baseline EEG in the rat for 10-min duration with the craniotomy, the follow-on EEG recording continued to record EEG following application of increasing concentrations of vehicle alone and VSD+ vehicle for the same duration of EEG recordings (i.e., 10 min) allowing comparisons of EEG responses to each increasing gradient of VSD on cortical activity as compared to baseline EEG signature in the same rat.

[5] = system: rat motor cortex; assay: EEG validation of seizure activity in the in vivo protocol; settings: IV VSD treatment; anesthetized rats
Description: 2.5.9 EEG validation of neural seizure activity. To obtain the EEG records of electrical spike discharges that originated from motor cortex shown in FIG. 14, sub-dermal scalp EEG recording electrodes were located at the corresponding locations on motor cortex indicated by Xs in FIG. 21A, the schematic of the rat cranium (three electrodes, 1 recording and 1 reference over motor cortex, 1 ground electrode over rostrum). The EEG signal at motor cortex was recorded with the identical preparation procedures in PA imaging including animal preparation, administration of IR780, Lexiscan, and PTZ, time duration for recording, and interval between sequences in the protocol. Data acquisition was done using Sirenia software (Pinnacle Technologies Inc., Kansas, USA) with synchronous video capture. […] The files were stored in .EDF format and scored manually for protocol stages using real time annotations added to the recording during the experiments.

[6] = system: blood-brain barrier (BBB); assay: PA intensity monitoring of VSD penetration through BBB with regadenoson; format: in vivo, rat; settings: brain tissue region; intravenous; last 2 min (8-10 min), 480 time points
Description: (Carman, et al., 2011) For preliminary studies, the dosage and IV administration method indicated by the manufacturer was utilized. A volume of 150 μl of the standard concentration of 0.08 mg/1 ml was given to each animal regardless of the weight, followed by 150 μl flush of 0.9% sodium chloride for injection. VSD penetration was expected during the Lexiscan's biological half-life, i.e., 2-4 minutes, thereby the experimental protocol was designed based on the pharmacological assumption. In vivo experimental protocol. The in vivo protocols were respectively designed for three experimental groups: negative control, control, and seizure groups. […] Note that each data acquisition was performed for 10 min to cover the biological half-life of Lexiscan (2-3 min). Each dosing protocol of Lexiscan and VSD was as follows: through the jugular vein catheter port located in the neck, 150 μl of Lexiscan 0.4 mg/5 ml concentration was injected, and 300 μl of VSD was subsequently administrated at 0.1 mg/ml concentration, followed by 150 μl of saline solution flush. […] The negative control group was designed to validate the incapability of Lexiscan and PTZ to generate any bias on PA neural activity detection by excluding VSD administration. […]

[7] = Spectrophotometric measurements of near-infrared VSD in lipid vesicle phantom; format: physicochemical
Excerpt: as §1, with “Afterwards, approximately a 100:1 K^+ gradient across vesicle membrane was established with 10 μL of lipid vesicle suspension added to 1 mL of Na^+ buffer. In the vesicle phantom prepared, negative membrane potential (polarized state) was mimicked by adding 2.5 μL of 10 μM valinomycin—a K^+ specific ionophore, thereby K^+ ions were transported from inside to outside of vesicle membranes.” left out
Otherwise, 2.5 μL of 1 mM gramicidin, a nonspecific monovalent cation ionophore, enables Na+ cations to move from outside to inside of vesicle membranes to short circuit the membrane potential (depolarized state). From these controls, our near-infrared VSD positively charged can move in and out through the vesicle membrane, leading to the change in fluorescence quenching depending on their aggregation status.

[8] = Photoacoustic characterization of PA-VSD in lipid vesicle phantom; format: physicochemical; settings: 800 nm; for fractional PA intensity change upon polarization: 20 samples
Description: (§2) Lipid vesicles were prepared from 25-mg soybean phosphatidylcholine (type II) suspended in 1 mL of K^+ buffer, which contains 100 mM K2SO4 and 20 mM HEPES. This suspension was vortexed for 10 min and sonicated in bath-type sonicator for 60 min, yielding a translucent vesicle suspension. A Na^+ buffer containing 100 mM Na2SO4 and 20 mM HEPES was prepared. During experiments, 10 μL of vesicle suspension was added to 1 mL of Na^+ buffer, resulting in an approximately 100:1 K^+ gradient across vesicle membrane. VSD was added to this suspension. When 2.5 μL of 10 μM valinomycin—a K^+ specific ionophore—was added, K^+ ions were transported from inside to outside of vesicle membranes, resulting in a negative membrane potential. This negative potential drives the positively charged VSDs into the vesicles, which causes aggregation of dyes and quenching of fluorescence. Subsequent addition of 2.5 μL of 1 mM gramicidin, a nonspecific monovalent cation ionophore, allows Na^+ cations to move from outside to inside of vesicle membranes to short circuit the membrane potential.
The PA sensing system was employed for the characterization of the synthesized PA-VSD (FIG. 3); Q-switched Nd:YAG laser integrated with an optical parametric oscillator (Phocus Inline and MagicPrism, Opotek Inc.) was used for PA signal generation. With the tunability of the laser system, the spectral responses for near-infrared wavelengths (i.e., 700 to 850 nm at 10-nm interval) were scanned with 20-Hz pulsed repetition frequency and […]. The light was delivered through an optical fiber bundle with a 9-mm round shaped output, which was aligned with an ultrasound receiver. The PAVSD in the lipid vesicles suspension was loaded into transparent tubes with 1.27-mm diameter (AAQ04133, Tygon®, SaintGobain Corp.), which were located at around 30 mm depth in the water tank. Note that the temperature of the water was consistently maintained at 22° C. during the experiments. A 10-MHz linear ultrasound probe (L 14-5/38, Ultrasonix Corp.) was used for PA-VSD sensing in a practical circumstance with a limited bandwidth (i.e., 75%-6 dB fractional bandwidth). Similarly, a hydrophone with wide flat bandwidth from 250 kHz to 20 MHz (HGL-1000, Onda Corp., California) was used to collect single line radio-frequency (RF) PA pressure signal. Twenty sets of PA data were collected, in which 19 of them were collected using the linear array transducer, and the other was through the hydrophone, and the average and standard deviation values were calculated. The PA signals acquired at the depth of target were used to form an averaged RF signal, which is further processed to present PA intensity at each optical wavelength; this permitted an accurate correlation with the spectrophotometric measurements. For the imaging setup, one set of data was obtained using the linear array transducer from 9 μM PA-VSD at 800-nm optical wavelength, and the difference between the resting and polarized states was analyzed.

[9] = Spectrophoto/fluorometric characterization of PA-VSD in lipid vesicle suspension (valinomycin/gramicidin); format: physicochemical; settings: for fluorescence quenching (fractional change in fluorescence) upon valinomycin polarization: 9 μM concentration, emission 825 nm
Description: as §2, with “This suspension was vortexed for 10 min and sonicated in bath-type sonicator for 60 min, yielding a translucent vesicle suspension.” left out
A combined spectrophoto/fluorometer system (Spectramax i3x, Molecular Devices) was used to measure both fluorescence and absorbance of the PA-VSD with 1, 3, 6, and 9 μM concentrations. For fluorescence, the measurement was conducted for the spectral range from 750 to 850 nm at 10-nm increment, and the absorbance was measured in the range from 600 to 900 nm at 5-nm increments. Note that 720-nm wavelength was used for excitation during spectrofluorometry of the PA-VSD.

[10] = estimated with theoretical model
[11] = direct cortical application, 100×

## CNC(=O)c1cnn(-c2nc(N)c3ncn([C@@H]4O[C@H](CO)[C@@H](O)[C@H]4O)c3n2)c1 [Lexiscan, regadenoson]
[1]
  biological half-life: 2-4 min and 2-3 min
[2]; negative control group without VSD, Lexiscan+/PTZ−
  neural activity index: 0.92±0.23

## CCCN1/C(=C/C=C2\CCCC(/C=C/C3=[N+](CCC)c4ccccc4C3(C)C)=C2Cl)C(C)(C)c2ccccc21.[I-] [IR780, IR780 perchlorate]
[3]
  PA intensity decrease in depolarization state compared to polarized state (pure VSD contrast): 12.3±6.7%
[3]; listed as VSD
  PA intensity decrease in depolarization state compared to polarized state (pure VSD contrast): 12.3% and 12.22%
[3]; [10]
  quantum yield in the depolarized state: 0.28±0.10
  quantum yield in the polarized state: 0.17±0.06
[4]; 100×, over the 10-min recording period
  course of EEG suppression: recovered to baseline
[4]; [11]
  EEG effect of 100× solution: significant EEG background suppression
  rats with significant EEG background suppression: 4/6
[4]; direct cortical application, lower concentrations, 10-min recordings
  effect on baseline EEG: no effect in altering the baseline EEG; also recorded: remained unaltered
[5]
  PTZ evolution of status on EEG: did not alter
[6]
  fractional increase of PA intensity from the natural condition (VSD−, Lexiscan−): 1.09±0.09
[7]
  peak absorbance: 790 nm
[7]; valinomycin and gramicidin
  absorbance change between polarized and depolarized states: 3%
  fluorescence emission change between polarized and depolarized states: 40.1%
[2]; control group (VSD+Lexiscan, no PTZ)
  neural activity index (fractional change vs baseline): 0.93±0.25
[2]; seizure group (VSD+Lexiscan+PTZ), motor cortex, 790 nm
  neural activity index (fractional change vs baseline): 2.40±0.42

## CCN1/C(=C/C=C/C=C/C=C/C2=[N+](CC)c3ccc4ccccc4c3C2(C)C)C(C)(C)c2c1ccc1ccccc21.[I-] [PAVSD800-2]
[8]; 1 μM
  fractional PA intensity change upon polarization: 17%
[8]; 3 μM
  fractional PA intensity change upon polarization: 24%
[8]; 6 μM
  fractional PA intensity change upon polarization: 17%
[8]; 6 μM, typical experiment
  PA intensity increase in the polarized state: 14%
[8]; 9 μM
  fractional PA intensity change upon polarization: 17%
[8]; 9 μM, dataset chosen for reconstructed PA images
  fractional change of PA signals: 22.72%
[9]
  fluorescence quenching (fractional change in fluorescence) upon valinomycin polarization: up to 49%
[9]; listed as PA-VSD
  fluorescence quenching (fractional change in fluorescence) upon valinomycin polarization: 49%
[9]; in the presence of lipid membranes
  fluorescence emission: 828 nm

— patent US20210393807A1, “PHOTOACOUSTIC VOLTAGE-SENSITIVE DYES FOR IN VIVO IMAGING” (The Johns Hopkins University, priority 2016, published 2021)
